Laboratory results taken from ChEMBL document CHEMBL1201862, “PubChem BioAssay data set” (2004).
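Compound exposure: 48 hours, 5 concentrations, 96-well plates. GI50 = concentration required for 50% inhibition of growth.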 Activity calls are given as the source filed them. Cut-off read from the data, not from the text of the source: active = GI50 up to about 1.1 µM and inactive = higher.

How the values were obtained:
Assay in all cases: NCI anticancer screen, dose series, 48 h
SF-539 = test system: SF-539
UACC-62 = test system: UACC-62
EKVX = test system: EKVX
KM12 = test system: KM12
NCI-H460 = test system: NCI-H460
HCT-15 = test system: HCT-15
SF-295 = test system: SF-295
HT-29 = test system: HT-29
DMS-273 = test system: DMS-273
UO-31 = test system: UO-31
NCI-H226 = test system: NCI-H226
HCT-116 = test system: HCT-116
SK-MEL-5 = test system: SK-MEL-5
ACHN = test system: ACHN
OVCAR-8 = test system: OVCAR-8
U-251 = test system: U-251
UACC-257 = test system: UACC-257
SN12C = test system: SN12C
PC-3 = test system: PC-3
DU-145 = test system: DU-145

Row | Compound | GI50 (SF-539) | GI50 (UACC-62) | GI50 (EKVX) | GI50 (KM12) | GI50 (NCI-H460) | GI50 (HCT-15) [µM] | GI50 (SF-295) | GI50 (HT-29) | GI50 (DMS-273) | GI50 (UO-31) | GI50 (NCI-H226) | GI50 (HCT-116) | GI50 (SK-MEL-5) | GI50 (ACHN) | GI50 (OVCAR-8) | GI50 (U-251) | GI50 (UACC-257) | GI50 (SN12C) | GI50 (PC-3) | GI50 (DU-145)
1 | CN(C)NC1=C([N+](=O)[O-])C=NN(c2ccccc2)C1 | 1.89 µM (inactive) | 1.71 µM (inactive) | 1.75 µM (inactive) | 2.52 µM (inactive) | 2.09 µM (inactive) | 1.55 | 1.81 µM (inactive) | 1.95 µM (inactive) | 1.75 µM (inactive) | 1.79 µM (inactive) | 3.84 µM (inactive) | 1.82 µM (inactive) | 2.56 µM (inactive) | 1.73 µM (inactive) | 2.04 µM (inactive) | 1.76 µM (inactive) | 1.74 µM (inactive) | 1.76 µM (inactive) | – | –
2 | COc1cc(C2c3cc4c(cc3[C@H](OCCN(C)C)[C@@H]3COC(=O)C23)OCO4)cc(OC)c1O (some centres not stated) | 0.0671 µM (active) | 0.0762 µM (active) | 0.485 µM (active) | 0.69 µM (active) | < 0.01 µM (active) | 0.605 | 0.0681 µM (active) | 0.621 µM (active) | 0.0385 µM (active) | 0.417 µM (active) | 0.0441 µM (active) | 0.753 µM (active) | 0.307 µM (active) | 0.0293 µM (active) | 0.624 µM (active) | 0.0468 µM (active) | 1.37 µM (inactive) | 0.0624 µM (active) | 0.805 µM (active) | 0.134 µM (active)
3 | CN(C)CCNC(=O)c1cccc2c1nc(-c1ccccn1)c1ccccc12 | 16.4 µM (inactive) | 17.1 µM (inactive) | 22.7 µM (inactive) | 28.3 µM (inactive) | 7.26 µM (inactive) | 13.8 | 17.6 µM (inactive) | 16.3 µM (inactive) | 13.5 µM (inactive) | 10.4 µM (inactive) | > 10 µM (inactive) | 10.3 µM (inactive) | 15.2 µM (inactive) | 15.5 µM (inactive) | 16 µM (inactive) | 16.3 µM (inactive) | 16.7 µM (inactive) | 23.9 µM (inactive) | – | –
4 | Cc1c(CCCl)c(Cl)n2c(nc3ccccc32)c1C#N | 0.681 µM (active) | 1.02 µM (active) | 3.21 µM (inactive) | 1.19 µM (inactive) | 0.456 µM (active) | 0.644 | 1.31 µM (inactive) | 1.42 µM (inactive) | 0.457 µM (active) | 1.28 µM (inactive) | 1.38 µM (inactive) | 0.229 µM (active) | 0.891 µM (active) | 0.836 µM (active) | 1.25 µM (inactive) | 0.986 µM (active) | 1.44 µM (inactive) | 0.423 µM (active) | 1.02 µM (active) | 1.69 µM (inactive)
5 | COc1cc(Br)c(/C=N/N=C(\N)NO)cc1OC | 24.7 µM (inactive) | 11.1 µM (inactive) | 7.21 µM (inactive) | 15.5 µM (inactive) | 5.22 µM (inactive) | 36 | 28.5 µM (inactive) | 15 µM (inactive) | 40.8 µM (inactive) | 20.3 µM (inactive) | 10.9 µM (inactive) | 15.2 µM (inactive) | 6.78 µM (inactive) | 9.35 µM (inactive) | 15.6 µM (inactive) | 23.4 µM (inactive) | 17.3 µM (inactive) | 24.6 µM (inactive) | – | –
6 | COC(=O)c1c(C)oc2ccc(OC(C)=O)cc12 | > 100 µM (inactive) | 97.7 µM (inactive) | 54.3 µM (inactive) | > 100 µM (inactive) | > 100 µM (inactive) | > 100 | > 100 µM (inactive) | 83 µM (inactive) | > 100 µM (inactive) | 33.6 µM (inactive) | > 100 µM (inactive) | > 100 µM (inactive) | > 100 µM (inactive) | > 100 µM (inactive) | > 100 µM (inactive) | > 100 µM (inactive) | > 100 µM (inactive) | > 100 µM (inactive) | – | –
7 | Cc1cc([N+](=O)[O-])c(S(=O)(=O)c2ccccc2)c([N+](=O)[O-])c1 | 12.7 µM (inactive) | 7.69 µM (inactive) | 24.2 µM (inactive) | 17.1 µM (inactive) | 13.4 µM (inactive) | 16 | 18.8 µM (inactive) | 7.85 µM (inactive) | 12.9 µM (inactive) | 16.9 µM (inactive) | 12.2 µM (inactive) | 9.75 µM (inactive) | 14.2 µM (inactive) | 16.5 µM (inactive) | 6.9 µM (inactive) | 13.5 µM (inactive) | 3.52 µM (inactive) | 4.43 µM (inactive) | – | –
8 | CN(C)c1ccc2c(c1)C(=O)N(OS(=O)(=O)c1ccc([N+](=O)[O-])cc1)C2=O | 17.6 µM (inactive) | 17.1 µM (inactive) | 42.7 µM (inactive) | 25.1 µM (inactive) | 49.3 µM (inactive) | 33.2 | 25.2 µM (inactive) | 21.7 µM (inactive) | 19.9 µM (inactive) | 23.1 µM (inactive) | 72.8 µM (inactive) | > 10 µM (inactive) | 41.1 µM (inactive) | 24.7 µM (inactive) | 25.5 µM (inactive) | 18.9 µM (inactive) | 25.6 µM (inactive) | 22.5 µM (inactive) | – | –
9 | S=C1OC2C3C4CC5C3C(O1)C1C5C4C21 (configuration not stated) | > 100 µM (inactive) | > 100 µM (inactive) | > 100 µM (inactive) | > 100 µM (inactive) | 58.5 µM (inactive) | > 100 | > 100 µM (inactive) | > 100 µM (inactive) | 89.1 µM (inactive) | > 100 µM (inactive) | > 100 µM (inactive) | 45.2 µM (inactive) | > 100 µM (inactive) | > 100 µM (inactive) | > 100 µM (inactive) | > 100 µM (inactive) | > 100 µM (inactive) | > 100 µM (inactive) | – | –
10 | N#Cc1c(-c2ccco2)cc(-c2ccc(N)cc2)[nH]c1=O | > 100 µM (inactive) | > 100 µM (inactive) | > 100 µM (inactive) | > 100 µM (inactive) | > 100 µM (inactive) | > 100 | > 100 µM (inactive) | > 100 µM (inactive) | > 100 µM (inactive) | > 100 µM (inactive) | > 100 µM (inactive) | > 100 µM (inactive) | > 100 µM (inactive) | > 100 µM (inactive) | > 100 µM (inactive) | > 100 µM (inactive) | > 100 µM (inactive) | > 100 µM (inactive) | – | –
11 | C=C=C(C(=O)OC)[S+]([O-])c1ccc([N+](=O)[O-])cc1[N+](=O)[O-] (configuration not stated) | 26.1 µM (inactive) | 28.2 µM (inactive) | > 100 µM (inactive) | 33.7 µM (inactive) | > 66.7 µM (inactive) | 21.5 | > 92.7 µM (inactive) | 26.1 µM (inactive) | 37.4 µM (inactive) | 43.4 µM (inactive) | 54.6 µM (inactive) | 21.4 µM (inactive) | 36.2 µM (inactive) | 37.2 µM (inactive) | 25.2 µM (inactive) | 38.1 µM (inactive) | 34.9 µM (inactive) | 22.4 µM (inactive) | – | –
12 | CC1(Cl)CC2OC3(Br)C=CC(C)(O)C2(CC1Br)C3(C)C (configuration not stated) | > 100 µM (inactive) | > 100 µM (inactive) | > 100 µM (inactive) | > 100 µM (inactive) | > 100 µM (inactive) | > 100 | > 100 µM (inactive) | > 100 µM (inactive) | > 100 µM (inactive) | > 100 µM (inactive) | > 100 µM (inactive) | > 100 µM (inactive) | > 100 µM (inactive) | > 100 µM (inactive) | > 100 µM (inactive) | > 100 µM (inactive) | 97.5 µM (inactive) | > 100 µM (inactive) | – | –
13 | O=C(O)CSc1nnc(-c2ccco2)[nH]1 | > 100 µM (inactive) | > 100 µM (inactive) | > 100 µM (inactive) | > 100 µM (inactive) | > 100 µM (inactive) | – | > 100 µM (inactive) | > 100 µM (inactive) | > 100 µM (inactive) | > 100 µM (inactive) | > 100 µM (inactive) | > 100 µM (inactive) | > 100 µM (inactive) | > 100 µM (inactive) | > 100 µM (inactive) | > 100 µM (inactive) | > 100 µM (inactive) | > 100 µM (inactive) | – | –
14 | O=C(O)/C=C\C(=O)c1ccc(Cl)cc1 | 25.1 µM (inactive) | 29.9 µM (inactive) | > 56.4 µM (inactive) | 52.1 µM (inactive) | > 100 µM (inactive) | 20.7 | > 100 µM (inactive) | 27.2 µM (inactive) | 20.2 µM (inactive) | 33.9 µM (inactive) | > 55.8 µM (inactive) | 25.2 µM (inactive) | > 83.9 µM (inactive) | 21.3 µM (inactive) | > 74.6 µM (inactive) | > 56.9 µM (inactive) | 20.1 µM (inactive) | 51.9 µM (inactive) | – | –
15 | O=C(Nc1ccc(Br)cc1)C(=O)C(C(=O)c1ccccc1F)C1OC(=O)c2ccccc21 (configuration not stated) | 20.1 µM (inactive) | 14 µM (inactive) | 81.1 µM (inactive) | 31.8 µM (inactive) | 31.8 µM (inactive) | 28.8 | – | 39.6 µM (inactive) | 31 µM (inactive) | 22.3 µM (inactive) | 3.48 µM (inactive) | 17.7 µM (inactive) | 27.2 µM (inactive) | 38.5 µM (inactive) | 24.8 µM (inactive) | 19.3 µM (inactive) | 24.8 µM (inactive) | 27.9 µM (inactive) | – | –
